From US11260042B2, “Pharmaceutical combination for the treatment of cancer” (ABILITY PHARMACEUTICALS S.L., priority 2017, dated 2022)
Read-outs that look alike come from different tables or passages of the source. One block for each molecule: values may come before it.

Experiments:
[1] = format: in vivo
Protocol: Methods: Forty-five female CD-1 mice were distributed by means of the body weight stratification method into nine experimental groups (A-I) (5 animals for group) that differed in the treatment or in the day on which the reference items (paclitaxel and carboplatin) were administered.
The table below summarizes the treatment groups. Please note that the same administration schedule and doses were administered as in the previous efficacy studies.
The safety assessment relied on observed mortality, local and systemic clinical signs, body weight and food consumption recorded throughout the whole study. In addition, clinical pathology determinations (biochemistry and hematology) were performed before sacrifice in all animals. At the end of the observation period (one day after the last administration), all surviving animals were sacrificed and subjected to a gross necropsy. Moreover, the safety assessment was also based on the weight of selected target organs collected at sacrifice.

[2] = system: SH-SY5Y human neuroblastoma xenograft; format: in vivo, Nu/nu female mice
Protocol: Methods: Immunodeficient athymic NMRI-Foxn1^nu/Foxn1^nu nude mice were subcutaneously injected with SH-SY5Y cells. This cell line was genetically modified to express luciferase, which would allow the in vivo study not only of tumor size, but also of metastasis formation. When tumors reached an average volume of 80 mm^3, mice were randomly distributed into different treatment groups. ABTL0812 was administered orally at 120 mg/kg daily. In parallel we used cisplatin, a drug included in the chemotherapy induction phase for the treatment of neuroblastoma. Cisplatin was administered at 2 mg/kg i.p. twice a week (Wang et al. 2010). Additionally, we studied the effect of combining ABTL0812 with cisplatin at the indicated doses.
C. Metastasis formation. In order to investigate the effect of ABTL0812 in metastasis formation we used a SH-SY5Y cell line transduced with a luciferase reporter vector. As described above, mice bearing xenograft tumors derived from this cell line were treated with ABTL0812, cisplatin or the combination of both drugs. After ten days of treatment animals were sacrificed and metastasis were assessed ex vivo by monitoring luciferase-expressing cells in lung and liver.

[3] = system: A549 (human lung carcinoma) cell line; experiment: Cell viability (MTT) of ABTL0812 in combination with docetaxel in lung cancer; format: cell-based; details: Homo sapiens, 72 h, A549, three days, FBS 0.5%, single agent
Protocol: Methods: A549 cells were incubated with increasing concentrations of ABTL0812 (3-300 μM), docetaxel (0.01-100 μM), or a combination of both (subIC50, i.e., 20 μM fixed concentration of ABTL812 and 0.01-100 μM docetaxel) for three days (FBS 0.5%). […] In the denominator, (Dx)1 is for D1“alone” that inhibits a system x %, and (Dx)2 is for D2“alone” that inhibits a system x %.

[4] = system: A549 human lung adenocarcinoma xenograft; format: in vivo; details: ABTL0812 30 mg/kg/day oral 5 times a week; docetaxel 5 mg/kg i.p. once a week
Protocol: Methods: Mice were injected with 5×10^6 A549 cells in each flank to induce tumor formation. […] ABTL0812 was administered by the oral route at 30 mg/kg/day, 5 times a week. Docetaxel 5 mg/kg was administered intra-peritoneally once a week (Coxon et al. 2012). Tumor volume and body weight were monitorized 3 times a week.

[5] = system: MiaPaca2 (human pancreatic carcinoma); experiment: Cell viability (MTT) of ABTL0812 alone or with gemcitabine in pancreatic cancer; format: cell-based; details: Homo sapiens, MIA PaCa-2; MiaPaca2, 72h, 0.5% FBS, MTT, single agent
Protocol: Methods: MiaPaca2 cells were seeded in 24-well plates together with gemcitabine (0.01-100 μM), ABTL812 (3-300 μM), or a combination of both (subIC50, i.e., 25 μM fixed concentration of ABTL0812 with 0.01-100 μM gemcitabine) and left in the incubator for 72h (0.5% FBS). Cell viability was studied by the MTT assay and several parameters were determined to evaluate a possible synergism. First the IC50 for each drug alone or the combination was calculated. Then, synergism (CI) was calculated as described above.

[6] = system: MiaPaca2 human pancreatic cancer xenograft; experiment: Human pancreatic xenograft (MiaPaca-2), gemcitabine and Nab-paclitaxel/gemcitabine; format: in vivo, Athymic Nude-Foxn1nu female mice; details: ABTL0812 120 mg/kg oral 5 times a week; gemcitabine 60 mg/kg, Nab-Paclitaxel 5 mg/kg i.p. 2 times a week (suboptimal chemotherapy dose)
Protocol: It is important to change the site of injection to avoid intestinal necrosis and keep Nab-Paclitaxel and gemcitabine injections as far as possible one from the other in mice abdomen. • Gemcitabine+ABTL0812 (n=10): treated orally with 120 mg/kg of ABTL0812 in 200 μl of distilled water+5% glycerol, 5 times a week and with 60 mg/kg of gemcitabine administered i.p in 100 μl of sterile water, 2 times a week. ABTL0812 was always administered before chemotherapy with the aim of reducing the stress derived from the i.p. injection, that is normally applied as the last administration. • Gemcitabine+Nab-Paclitaxel+ABTL0812 (n=8): treated orally with 120 mg/kg of ABTL0812 in 200 μl of distilled water+5% glycerol, 5 times a week, with 60 mg/kg of gemcitabine administered i.p. in 100 μl of sterile water, 2 times a week and with 5 mg/kg of Nab-Paclitaxel administered i.p. in 230 μl of 0.9% NaCl solution 2 times a week. As in the gemcitabine+Nab-Paclitaxel group, injections where administered in separated areas of the abdomen. […]
Treatment efficacy was assessed by measuring tumor volume three days a week. Additionally, total body weight was monitored three days a week to test the toxicity associated with the treatments in addition to visual examination of signs indicative of clinicopathological symptoms. […]

H157 cells = experiment: Cell viability (MTT) of ABTL0812 in combination with paclitaxel, H157; format: cell-based, human; details: Homo sapiens, NCI-H157; H157, 48 hours, 0.1% FBS, single agent
Protocol: (§1) Methods: A549 cells were incubated with increasing concentrations of ABTL0812 (3-300 μM), paclitaxel (0.003-1 μM), or a combination of both using subIC50 fixed concentration of ABTL0812 and 0.003-1 μM paclitaxel for 72 hours in DMEM with 0.1% FBS. H157, H1957 and HTB-812 cells were incubated with increasing concentrations of paclitaxel (0.001-10 μM) alone and in combination with subIC50 fixed concentration of ABTL0812 for 48 hours in DMEM with 0.1% FBS. Cell viability was evaluated in all cases by MTT assay and IC50's were calculated for paclitaxel and the combination. The concentrations of the combinations for the different cell lines were:
(§2) Finally, the Combination Index (CI), as described in the previous section, was calculated for the values of paclitaxel IC50.

H1957 cells = experiment: Cell viability (MTT) of ABTL0812 in combination with paclitaxel, H1957; format: cell-based, human; details: Homo sapiens; H1957, 48 hours, 0.1% FBS, single agent
Protocol: as §1, §2

HTB-812 cells = experiment: Cell viability (MTT) of ABTL0812 in combination with paclitaxel, HTB-812; format: cell-based, human; details: Homo sapiens; HTB-812, 48 hours, 0.1% FBS, single agent
Protocol: as §1, §2

[7] = system: MDB-DA-231 (human triple negative breast cancer); experiment: Cell viability (MTT) of ABTL0812 alone or with paclitaxel in breast cancer; format: cell-based; details: Homo sapiens; MDB-DA-231, 48h, 0.5% FBS, MTT, single agent
Protocol: Methods: MDB-DA-231 cells were seeded in 24-well plates together with increasing concentration of paclitaxel (1-100 nM) in the presence of 5, 10 and 20 μM of ABTL0812 (all doses below to an IC25) for 48h (0.5% FBS). Cell viability was studied by the MTT assay and several parameters were determined to evaluate a possible synergism. First the IC50 for each drug alone or the combination was calculated.

[8] = system: LA1-5S neuroblastoma cell line; experiment: Cell viability (crystal violet) of ABTL0812 with retinoic acid, LA1-5S; details: 24h
Protocol: (§3) Methods: LA1-5S and SK-N-BE(2) cells were incubated with a subIC50 fixed concentration of ABTL0812 (30 μM), increasing concentrations of 10 μM, 20 μM and 30 μM of retinoic acid or a combination of both. […] Cells were treated for 24h in IMDM with 0.5% FBS. Cell viability was evaluated in all cases by crystal violet assay. Different doses were assessed in six replicates and the results shown are the average of two independent experiments. Statistical analyses were performed according to the T-Test principle with GraphPad Prism® 5.0 software (* p<0.05; ** p<0.01; *** p<0.001)..

[9] = system: SK-N-BE(2) human neuroblastoma cell line; experiment: Cell viability (crystal violet) of ABTL0812 with retinoic acid, SK-N-BE(2); details: 24h
Protocol: as §3

Compound: N.N.O=C([O-])C1(C(=O)[O-])CCC1.[Pt+2] [Carboplatin]
Body Weight Gain D 1-4 ([1]; ABTL0812 120 mg/kg p.o. days 2-6, 9-13, paclitaxel 15, carboplatin 50 mg/kg i.p. D 2/9): -0.626 g
Biochemistry Creat ([1]; PTX/CP on D 2/9): 8.83 µmol/L
Biochemistry Triglyc ([1]; PTX/CP on D 2/9): 1.35 mmol/L
Biochemistry Urea ([1]; PTX/CP on D 2/9): 9.50 mmol/L
Body Weight Gain D 8-11 ([1]; PTX/CP on D 2/9): -0.450 g
Hematology PLT ([1]; PTX/CP on D 2/9): 790 ×10^3/μL
Hematology RBC ([1]; PTX/CP on D 2/9): 8.40 ×10^6/μL
Hematology WBC ([1]; PTX/CP on D 2/9): 7.09 ×10^3/μL

Compound: N.N.[Cl][Pt][Cl] [Cisplatin, reference compound]
Hematocrit ([2]; mouse, in vivo): 37.3 ± 2.7%
RBC ([2]; mouse, in vivo): 6.8 ± 0.9 ×10^6/μL
WBC ([2]; mouse, in vivo): 3.0 ± 0.6 ×10^3/μL
hematological safety ([2]; mouse, in vivo): induced anemia and reduced white blood cell count
metastasis formation in lung and liver ([2]; ten days of treatment, luciferase-expressing cells ex vivo): no significant effect in inhibiting metastasis formation

Compound: CC(=O)O[C@@]12CO[C@@H]1C[C@H](O)[C@@]1(C)C(=O)[C@H](O)C3=C(C)[C@@H](OC(=O)[C@H](O)[C@@H](NC(=O)OC(C)(C)C)c4ccccc4)C[C@@](O)([C@@H](OC(=O)c4ccccc4)[C@H]21)C3(C)C [Docetaxel, reference compound]
IC50 [3]: 1.7 µM
tumor volume [4]: similarly reduced tumor volume

IC50 [5]: 10.2 µM
Compound: Nc1ccn([C@@H]2O[C@H](CO)[C@@H](O)C2(F)F)c(=O)n1 [Gemcitabine, reference compound]
tumor volume [6]: do not show significant difference in tumor volume compared with vehicle group

IC50 (H157 cells): 4.19 µM
IC50 (H1957 cells): 3.68 µM
IC50 [7]: 0.0087 µM
Biochemistry Creat ([1]; mouse, in vivo): 9.74 µmol/L
Biochemistry Triglyc ([1]; mouse, in vivo): 1.31 mmol/L
Biochemistry Urea ([1]; mouse, in vivo): 9.50 mmol/L
Hematology PLT ([1]; mouse, in vivo): 1378 ×10^3/μL
Hematology RBC ([1]; mouse, in vivo): 9.59 ×10^6/μL
Hematology WBC ([1]; mouse, in vivo): 6.28 ×10^3/μL
Compound: CC(=O)O[C@H]1C(=O)[C@@]2(C)[C@H]([C@H](OC(=O)c3ccccc3)[C@]3(O)C[C@H](OC(=O)[C@H](O)[C@@H](NC(=O)c4ccccc4)c4ccccc4)C(C)=C1C3(C)C)[C@]1(OC(C)=O)CO[C@@H]1C[C@@H]2O [Paclitaxel]
IC50 (HTB-812 cells): 2.71 µM
Body Weight Gain D 8-11 ([1]; mouse, in vivo): 0.442 g

Compound: CC1=C(/C=C/C(C)=C/C=C/C(C)=C/C(=O)O)C(C)(C)CCC1 [retinoic acid]
cytotoxicity ([8]; LA1-5S, 30 μM ABTL0812, retinoic acid 10-30 μM): even lower
cell viability ([8]; LAI-5S cells, combination with low concentration of ABTL0812): 82.8%
cell viability ([9]; SK-N-BE(2) cells, combination with low concentration of ABTL0812): 70.4%
cytotoxicity ([9]; SK-N-BE(2), 30 μM ABTL0812, retinoic acid 10-30 μM): even lower
